Target: T1, AqpZ (Escherichia coli, UniProt P60844)
T1 construct: C-terminal GFP-His tag cut by TEV protease; expressed in E. coli BL21(DE3); DDM-purified, C8E4 for native MS; homotetramer about 102 kDa with lipids (17-, m/z 6000)
T1 sequence (P60844 1-231): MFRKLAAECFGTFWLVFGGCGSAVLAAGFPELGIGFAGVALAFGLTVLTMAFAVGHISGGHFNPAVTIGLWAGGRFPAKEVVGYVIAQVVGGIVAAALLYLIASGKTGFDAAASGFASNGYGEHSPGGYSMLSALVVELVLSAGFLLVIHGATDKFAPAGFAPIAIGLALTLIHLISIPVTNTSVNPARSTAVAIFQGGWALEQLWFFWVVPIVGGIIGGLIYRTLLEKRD
Test: native MS with single lipid standard
Format: binding
Details: 200 mM ammonium acetate pH 7.0, 2xCMC C8E4

Row | Compound | native MS with single lipid standard
1 | CCCCCCCC/C=C\CCCCCCCC(=O)OC[C@H](COP(=O)(O)OCC(O)COP(=O)(O)OC[C@@H](COC(=O)CCCCCCC/C=C\CCCCCCCC)OC(=O)CCCCCCC/C=C\CCCCCCCC)OC(=O)CCCCCCC/C=C\CCCCCCCC (some centres unmarked) [CDL 18:1(9Z)] | The resulting native mass spectra confirmed that all three lipid classes bind to the membrane protein
2 | CCCCCCCC/C=C\CCCCCCCC(=O)OC[C@H](COP(=O)(O)OCC(O)CO)OC(=O)CCCCCCC/C=C\CCCCCCCC (some centres unmarked) [DOPG] | The resulting native mass spectra confirmed that all three lipid classes bind to the membrane protein

— article PMC12424025, “Deep Structural Characterization of Protein-Bound Lipids via Native MS and Ultraviolet Photodissociation” (Analytical Chemistry, 2025)
